Three molecules from US9676727B2, “Myxovirus therapeutics, compounds, and uses related thereto” (priority 2011, dated 2017) can be followed below.

One data set is described as follows: MTT cytotoxicity. The data set is classed as cell-based. As to conditions: African green monkey, Vero cells; averages of at least three experiments; highest concentration assessed 75 μM.
Data set [1] in a line: Pharmacokinetic study in rat, plasma concentration after dosing. The data set is classed as in vivo, Sprague-Dawley rat. As to conditions: for AUC(0-inf) / AUC (0-t) / Cmax / Tmax / half-life / AUC (0-∞) / T½: suspension in PEG200/0.5% methylcellulose (10/90); for half-life: read-out: T½ (converted); for dose proportionality: range of 10 mg/kg to 50 mg/kg. Here is the method: Preliminary pharmacokinetic (PK) studies in the Sprague-Dawley rat compared AS-136a with compounds 2k and 2o following p.o. dosing by oral gavage at 10 mg/kg and 50 mg/kg in a PEG200/0.5% methylcellulose (10/90) vehicle (n=4/group).
The data from the preliminary pharmacokinetic studies using the 6-hour time point are reported for comparison purposes. […] On the basis of its excellent in vitro potency, good solubility and pharmacokinetic profile, compound 2o was chosen for further bioavailability evaluation.

Data set [2] in a line: Aqueous solubility by nephelometry. As to conditions: for solubility: buffer, pH 7.4, aqueous buffer, kinetic from dmso stock; for Aqueous solubility (μg/ml) Test: buffer pH=7.4. In kind it is physicochemical.
The test system of data set [3] is MV-Alaska. In words: Viral CPE-reduction assay (MeV-Alaska in Vero-SLAM cells, crystal violet). In kind it is cell-based, Measles virus (MeV). As to conditions: Measles morbillivirus. Here is the method: Methods for evaluating viral activity are provided for in Yoon et al., J Biomol Screen., 2008, 13(7): 591-608 and Krumm et al., PLoS ONE, 2011, 6(5), e20069, both hereby incorporated by reference in their entirety. In certain instances, Vero-SLAM cells were infected with MeV-Alaska in four replicates per compound concentration in a 96-well plate format at an MOI of 0.4 pfu/cell in the presence of the inhibitor. At 96 hours post-infection, cell monolayers were subjected to crystal violet staining (0.1% crystal violet in 20% ethanol), and the absorbance of dried plates at 560 nm determined. Virus-induced cytopathicity was then calculated according to the formula [% rel. CPE=100-(experimental-minimum)/(maximum-minimum)*100], with minimum referring to infected, vehicle-treated wells and maximum to mock-infected wells.

For data set [4], the system named is MV-Alaska. As to the kind of experiment: Virus yield (virus titer) reduction assay. In kind it is cell-based, Measles virus (MeV). Particulars: Measles morbillivirus.
A further data set deals with Vero cells. In words: MTT cytotoxicity. In kind it is cell-based. As to conditions: averages of at least three experiments; highest concentration assessed 75 μM.
Where [5] appears, read: Sprague-Dawley, plasma, oral 10 mg/kg.
The mark [6] stands for this setting: Sprague-Dawley, plasma, oral 50 mg/kg.
Setting [7] is: Table 3, averages of four experiments, concentration range 2.3-75 μM, read-out: EC50 (μM) (MV-Alaska) CPE inhibition.
The mark [8] stands for this setting: MV-Alaska, read-out: EC50 in the virus titer reduction assay.
The mark [9] stands for this setting: averages of two to four experiments ± SEM, highest concentration assessed 1 μM, read-out: EC50 (μM) (MV-Alaska) virus titer reduction.

Values after ≈ are worked out from the molar mass of the structure shown. Like-named read-outs stand apart in the source and are kept apart here. A value given as a limit tells only on which side of the number the result lay.

For the molecule `Cn1nc(C(F)(F)F)cc1C(=O)Nc1ccc(S(=O)(=O)N2CCCCC2CCN2CCOCC2)cc1` (single isomer, unassigned) [Compound 2o, 1-methyl-N-(4-((2-(2-morpholinoethyl)piperidin-1-yl)sulfonyl)phenyl)-3-(trifluoromethyl)-pyrazole-5-carboxamide], in “MTT cytotoxicity”, the CC50 – broadly, the concentration that lowers cell viability or growth by half – is more than 75 µM. Besides, the area under the curve AUC(0-inf) (commonly the area under the concentration-time curve extrapolated to infinity) worked out at 818 ng·h/mL in data set [1] (setting [5]) and 7860 ng·h/mL in data set [1] (setting [6]). The AUC (0-t) was 683 ng·h/mL in data set [1] (Sprague-Dawley, plasma, oral 10 mg/kg, read-out: AUC (0-t)) and 3520 ng·h/mL in data set [1] (Sprague-Dawley, plasma, oral 50 mg/kg, read-out: AUC (0-t)). Also, the Cmax (as a rule, the highest concentration seen after dosing) in data set [1] (Sprague-Dawley, plasma, oral 10 mg/kg, read-out: Cmax) is 195 ng/mL; in data set [1] (Sprague-Dawley, plasma, oral 50 mg/kg, read-out: Cmax), 823 ng/mL. Also, the Tmax (as a rule, the time at which the peak concentration occurs) in data set [1] (Sprague-Dawley, plasma, oral 10 mg/kg, read-out: Tmax) turned out to be 1.1 h; in data set [1] (Sprague-Dawley, plasma, oral 50 mg/kg, read-out: Tmax), 1.5 h. Moreover, the half-life in data set [1] (setting [5]) was 2.2 h; in data set [1] (setting [6]), 6.5 h. Also, the bioavailability – broadly, the share of a dose that reaches the circulation, judged against a reference dose that is usually intravenous – in data set [1] (Sprague-Dawley, plasma, oral, 2 mg/kg i.v. and 10 mg/kg p.o., read-out: oral bioavailability (F)) stood at 39%. The “exposure (AUC/Cmax) increase in rat relative to AS-136a” value in data set [1] (p.o.) worked out at 10 fold. For the same molecule, the dose proportionality result in data set [1] (p.o.) was “near dose proportionality”. The solubility is 60 µg/mL (≈ 113 µM) in data set [2] (Nephelometer, read-out: Aqueous solubility (μg/ml) Test) and approximately 60 µg/mL (≈ 113 µM) in data set [2] (nephelometry, read-out: aqueous solubility). Also, the EC50 (as a rule, the concentration giving half of the maximal effect) in the data set with MV-Alaska [3] (Table 1, piperidine series, read-out: EC50 (μM) (MV-Alaska) (CPE inhib.)) turned out to be 4.5 µM; with MV-Alaska [3] (setting [7]), 4.5 µM; in the data set with MV-Alaska [4] (setting [8]) it was 0.02 µM; with MV-Alaska [4] (setting [9]) it was 0.02 µM.
In turn, `Cn1nc(C(F)(F)F)cc1C(=O)Nc1ccc(S(=O)(=O)N2CCCCC2CCO)cc1` (stereo not shown) [Compound 2k, N-(4-((2-(2-hydroxyethyl)piperidin-1-yl)sulfonyl)phenyl)-1-methyl-3-(trifluoromethyl)-pyrazole-5-carboxamide] registered a cytotoxic concentration (CC50) in the data set with Vero cells of more than 75 µM. Besides, in data set [1] (oral 10 mg/kg), the “AUC (0-t)” value came to 56.3 ng·h/mL, the “AUC (0-∞)” value is 56.8 ng·h/mL, the Cmax was 19.8 ng/mL and the Tmax turned out to be 1 h. Besides, the T½ in data set [1] (oral 10 mg/kg) was found to be 0.8 h. In data set [1] (oral 50 mg/kg), the “AUC (0-t)” value came out at 754 ng·h/mL, the “AUC (0-∞)” value worked out at 973 ng·h/mL, the Cmax is 184 ng/mL and the Tmax was determined as 0.5 h. The T½ in data set [1] (oral 50 mg/kg) came to 2.7 h. For the same molecule, the dose proportionality result in data set [1] (p.o.) is “non-proportionality”. Also, the “Aqueous solubility (μg/ml) Test” value in data set [2] (Nephelometer) was 62 µg/mL. Moreover, in the data set on MV-Alaska [3] (setting [7]), the EC50 came out at 2.7 µM. Moreover, in the data set with MV-Alaska [3] (MV-Alaska, read-out: EC50, CPE assay), the EC50 is 2.7 µM. Besides, in the data set on MV-Alaska [4] (setting [8]), the EC50 is 0.06 µM. In addition, in the data set with MV-Alaska [4] (setting [9]), the EC50 is 0.06 µM.
For `Cn1nc(C(F)(F)F)cc1C(=O)Nc1ccc(S(=O)(=O)c2ccccc2O)cc1` [Compound 3c, N-(4-((2-hydroxyphenyl)sulfonyl)phenyl)-1-methyl-3-(trifluoromethyl)-pyrazole-5-carboxamide], in the data set “MTT cytotoxicity”, the CC50 was not below 75 µM. Moreover, in data set [2] (Nephelometer), the “Aqueous solubility (μg/ml) Test” value was 67 µg/mL. Besides, the EC50 with MV-Alaska [3] (Table 2, phenyl and acyclic series, read-out: EC50 (μM) (MV-Alaska) (CPE inhibition)) was 4.5 µM.
